What is called IC50 is the concentration that gives 50% inhibition. By inhibition is commonly meant the drop in the measured response relative to a control, in per cent. A higher inhibition goes with strong suppression.

In patent publication US5280047A, “2-(4-substituted)phenylmethylene derivatives and methods of use” (G. D. Searle & Co., priority 1993, dated 1994) one finds IC50 and inhibition data, which are given here for 14 molecules.

Several values for one entry are separate records, joined by “and”; a condition that tells them apart may be missing. Identical values can stand only once.

The first test has as its target T1, 5-lipoxygenase (Rattus norvegicus, UniProt P12527).
T1 construct: supernatant fraction of Rat Basophilic Leukemia Cell Homogenate (RBL-1) serves as a 5-lipoxygenase enzyme source; endogenous in cells; host or cells: RBL-1 (rat basophilic leukemia) cells, 100,000 x g supernatant of the homogenate
T1 sequence (P12527 1-673): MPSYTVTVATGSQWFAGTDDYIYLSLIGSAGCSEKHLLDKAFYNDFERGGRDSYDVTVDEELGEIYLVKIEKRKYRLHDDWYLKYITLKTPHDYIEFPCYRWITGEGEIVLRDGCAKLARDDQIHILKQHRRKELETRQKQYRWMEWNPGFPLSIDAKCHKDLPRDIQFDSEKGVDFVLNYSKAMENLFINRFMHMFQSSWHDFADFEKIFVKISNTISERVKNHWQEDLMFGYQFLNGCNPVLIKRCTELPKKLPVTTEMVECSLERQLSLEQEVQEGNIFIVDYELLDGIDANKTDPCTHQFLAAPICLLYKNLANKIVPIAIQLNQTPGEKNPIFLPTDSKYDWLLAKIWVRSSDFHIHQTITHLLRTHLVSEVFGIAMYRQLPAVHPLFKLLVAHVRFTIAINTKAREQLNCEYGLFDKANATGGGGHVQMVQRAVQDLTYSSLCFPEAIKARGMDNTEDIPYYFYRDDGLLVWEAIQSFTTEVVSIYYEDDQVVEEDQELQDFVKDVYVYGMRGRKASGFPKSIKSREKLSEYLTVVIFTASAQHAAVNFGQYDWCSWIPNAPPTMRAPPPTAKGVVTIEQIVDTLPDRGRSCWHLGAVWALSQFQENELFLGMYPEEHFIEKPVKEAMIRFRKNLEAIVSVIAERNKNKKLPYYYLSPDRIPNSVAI
Description: Inhibition of 5-lipoxygenase, in vitro (5-HETE synthesis, RBL-1 100,000 x g supernatant).
Details: not given
Type of test: biochemical. The protocol:
The compounds of the invention are evaluated with respect to 5-lipoxygenaseinhibition according to the following assay procedure.
Inhibition of 5-lipoxygenase, in vitro : anti-inflammatory, anti-allergy activities.
The 100,000 x g supernatant fraction of Rat Basophilic Leukemia Cell Homogenate (RBL-1) serves as a 5-lipoxygenase enzyme source. The enzyme is incubated with [1-^14 C)-arachidonic acid and Ca++ in the presence and absence of test compound. The product of 5-lipoxygenase, 5-hydroxyeicosatetraenoic acid (5-HETE), is separated by thin-layer chromatography and measured by radioactivity.
When more than one result is listed, this indicates the results from additional tests.
As for `CCCCCCCCc1ccc(/C=C/C(C)=O)cc1` [Example 8, 4-(4-octylphenyl)-3E-buten-2-one], the midpoint of inhibition, the IC50, lay at 100 µM.

Staying with this test, now noted: Rat Basophilic Leukemia Cell Homogenate (RBL-1) supernatant; [1-14C]-arachidonic acid and Ca++; several values = results from additional tests; read-out: 5-Lipoxygenase Inhibition IC50.
With `CCOC(=O)/C(=C/c1ccc([N+](=O)[O-])cc1)C(C)=O` [Example 7G, Ethyl 2E-[(4-nitrophenyl)methylene]-3-oxobutanoate], the half-inhibitory concentration (IC50) amounted to 74 µM.
On the same count and under the same terms, with `CCOC(=O)/C(=C\c1ccc(Cl)cc1)C(C)=O` [Example 6F, Ethyl 2Z-[(4-chlorophenyl)methylene]-3-oxobutanoate] the figure was 56 µM.
Still for that read-out and setting: with `CCCCCCc1ccc(/C=C(/C(C)=O)C(=O)c2ccccc2)cc1` [Example 2, 2Z-[(4-hexylphenyl)methylene]-1-phenyl-1,3-butanedione] the figure was 18 µM.
The same measure, in the same setting: as for `CCCCCCCCc1ccc(/C=C(\C(C)=O)C(=O)OCC)cc1` [Example 3C, Ethyl 2E-[(4-octylphenyl)methylene]-3-oxobutanoate], the figure is 5.9 µM and 14 µM; as for `CCCCCCCCc1ccc(C=C(C(C)=O)C(C)=O)cc1` [Example 5, 3-[(4-octylphenyl)methylene]-2,4-pentanedione], 4.4 µM; as for `CCCCCCc1ccc(/C=C(/C(C)=O)C(=O)OCC)cc1` [Example 1B, Ethyl 2Z-[(4-hexylphenyl)methylene]-3-oxobutanoate], 7.6 µM and 5.9 µM.
Consider `CCCCCCc1ccc(/C=C(\C(C)=O)C(=O)OCC)cc1` [Example 1A, Ethyl 2E-[(4-hexylphenyl)methylene]-3-oxobutanoate], for which the IC50 was 3 µM and 7.9 µM and 15 µM.
Still for that read-out and setting: with `CCOC(=O)/C(=C\c1ccc([N+](=O)[O-])cc1)C(C)=O` [Example 7H, Ethyl 2Z-[(4-nitrophenyl)methylene]-3-oxobutanoate] the figure was 78 µM; with `CCCCCCc1ccc(C=C(C(=O)OCC)C(=O)OCC)cc1` [Example 10, Diethyl 2-[(4-hexylphenyl)methylene]propanedioate], 100 µM; with `CCCCCCc1ccc(/C=C/C(C)=O)cc1` [Example 9, 4-(4-hexylphenyl)-3E-buten-2-one], 100 µM.
As to `CCOC(=O)/C(=C/c1ccc(Cl)cc1)C(C)=O` [Example 6E, Ethyl 2E-[(4-chlorophenyl)methylene]-3-oxobutanoate], the IC50 was 47 µM.

The same test, now with this note: at 100 μM; RBL-1 supernatant, 5-HETE synthesis.
`CCCCCCCCc1ccc(/C=C(/C(C)=O)C(=O)OCC)cc1` [Example 3D, Ethyl 2Z-[(4-octylphenyl)methylene]-3-oxobutanoate] came in with an inhibition at 100 µM of 42%.
In turn, `CCCCCCCCc1ccc(C=C(C(=O)OCC)C(=O)OCC)cc1` [Example 4, Diethyl 2-[(4-octylphenyl)methylene]propanedioate] gave an inhibition at 100 µM of 45.6%.
